Assay results taken from PubChem BioAssay AID248 (DTP/NCI, 2004).
Where “and” joins values, the source holds several entries; their conditions need not be identical. Identical values can stand only once. Inconclusive results and toxic doses are left out. Cut-off read from the data, not from the text of the source: active = T/C of 150% or more; inactive = T/C below 125%.

Tested on: L1210 leukemia ip in BDF1 mice, survival T/C
Experiment: NCI In Vivo Anticancer Drug Screen. Data for tumor model L1210 Leukemia (intraperitoneal) in B6D2F1 (BDF1) mice
Details: endpoint: mean survival time, higher = longer survival
Method in brief: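 Antitumor effect is assessed in tumor-bearing animals. Survival in the compound arm is compared with a vehicle-dosed control arm and expressed as their quotient.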

[1] = dose: 100.0 mg/kg/injection, schedule: Q04DX003 (ip), vehicle: saline sonified
[2] = dose: 200.0 mg/kg/injection, schedule: Q04DX003 (ip), vehicle: saline sonified
[3] = dose: 400.0 mg/kg/injection, schedule: Q04DX003 (ip), vehicle: saline sonified
[4] = dose: 100.0 mg/kg/injection, schedule: Q01DX001 (ip), vehicle: saline
[5] = dose: 200.0 mg/kg/injection, schedule: Q01DX001 (ip), vehicle: saline
[6] = dose: 6.25 mg/kg/injection, schedule: Q01DX009 (ip), vehicle: Klucel (hydroxypropylcellulose) (HPC)
[7] = dose: 12.5 mg/kg/injection, schedule: Q01DX009 (ip), vehicle: Klucel (hydroxypropylcellulose) (HPC)
[8] = dose: 12.5 mg/kg/injection, schedule: Q04DX003 (ip), vehicle: Klucel (hydroxypropylcellulose) (HPC)
[9] = dose: 25.0 mg/kg/injection, schedule: Q01DX009 (ip), vehicle: Klucel (hydroxypropylcellulose) (HPC)
[10] = dose: 25.0 mg/kg/injection, schedule: Q04DX003 (ip), vehicle: Klucel (hydroxypropylcellulose) (HPC)
[11] = dose: 100.0 mg/kg/injection, schedule: Q04DX003 (ip), vehicle: saline with Tween-80
[12] = dose: 200.0 mg/kg/injection, schedule: Q04DX003 (ip), vehicle: saline with Tween-80
[13] = dose: 100.0 mg/kg/injection, schedule: Q01DX009 (ip), vehicle: Klucel (hydroxypropylcellulose) (HPC)
[14] = dose: 200.0 mg/kg/injection, schedule: Q01DX009 (ip), vehicle: Klucel (hydroxypropylcellulose) (HPC)

Measured: T/C

CC(=O)Nc1cccc(Cl)c1C
inactive: dose: 100.0 mg/kg/injection, schedule: Q01DX009 (ip), vehicle: saline sonified 97 % of control | [1] 95 % of control | dose: 200.0 mg/kg/injection, schedule: Q01DX009 (ip), vehicle: saline sonified 91 % of control | [2] 95 % of control | dose: 400.0 mg/kg/injection, schedule: Q01DX009 (ip), vehicle: saline sonified 91 % of control | [3] 97 % of control

O=C(Nc1ccc([N+](=O)[O-])cc1)N(c1ccccc1)c1cc(N2CCOCC2)ccn1
inactive: [4] 91 % of control | [5] 91 % of control | dose: 400.0 mg/kg/injection, schedule: Q01DX001 (ip), vehicle: saline 88 % of control

CCC(CCN(CC=C(C)C)CC=C(C)C)(C(N)=O)c1cccc2ccccc12 (stereo unspecified)
inactive: [6] 96 % of control | dose: 6.25 mg/kg/injection, schedule: Q04DX003 (ip), vehicle: Klucel (hydroxypropylcellulose) (HPC) 107 % of control | [7] 101 % of control | [8] 100 % of control | [9] 96 % of control | [10] 102 % of control

CC(=O)NC(C)(C)CC(C)(C)C
inactive: [7] 99 % of control | [8] 98 % of control | dose: 25.0 mg/kg/injection, schedule: Q01DX001 (ip), vehicle: saline with Tween-80 98 % of control | [9] 101 % of control | [10] 96 % of control | dose: 50.0 mg/kg/injection, schedule: Q01DX001 (ip), vehicle: saline with Tween-80 103 % of control | dose: 50.0 mg/kg/injection, schedule: Q04DX003 (ip), vehicle: Klucel (hydroxypropylcellulose) (HPC) 93 % of control | dose: 100.0 mg/kg/injection, schedule: Q01DX001 (ip), vehicle: saline with Tween-80 105 % of control and 119 % of control

N#[N+]c1ccccc1-c1nc(N)nc(N)n1
inactive: dose: 25.0 mg/kg/injection, schedule: Q01DX009 (ip), vehicle: saline 110 % of control | dose: 25.0 mg/kg/injection, schedule: Q04DX003 (ip), vehicle: saline 113 % of control | dose: 50.0 mg/kg/injection, schedule: Q01DX009 (ip), vehicle: saline 100 % of control | dose: 50.0 mg/kg/injection, schedule: Q04DX003 (ip), vehicle: saline 103 % of control | [4] 99 % of control | dose: 100.0 mg/kg/injection, schedule: Q01DX009 (ip), vehicle: saline 92 % of control | dose: 100.0 mg/kg/injection, schedule: Q04DX003 (ip), vehicle: saline 96 % of control

O=C(CC(=O)c1ccccc1)Nc1cccc([N+](=O)[O-])c1
inactive: [11] 90 % of control | [12] 86 % of control | dose: 400.0 mg/kg/injection, schedule: Q04DX003 (ip), vehicle: saline with Tween-80 86 % of control

C=C(Br)COCC
inactive: dose: 25.0 mg/kg/injection, schedule: Q01DX009 (ip), vehicle: acetone 97 % of control

CCOc1ccc(C(=O)C(C)CN2CCN(C)CC2)cc1 (stereo unspecified)
inactive: [4] 98 % of control

C=COP(OCCCC)OCCCC
inactive: dose: 25.0 mg/kg/injection, schedule: Q04DX002 (ip), vehicle: saline 94 % of control | dose: 50.0 mg/kg/injection, schedule: Q04DX002 (ip), vehicle: saline 91 % of control | dose: 100.0 mg/kg/injection, schedule: Q04DX002 (ip), vehicle: saline 93 % of control and 97 % of control | dose: 200.0 mg/kg/injection, schedule: Q04DX002 (ip), vehicle: saline 91 % of control | dose: 400.0 mg/kg/injection, schedule: Q04DX002 (ip), vehicle: saline 96 % of control

NNc1cc(Cl)ccc1Cl
inactive: dose: 100.0 mg/kg/injection, schedule: Q04DX002 (ip), vehicle: Klucel (hydroxypropylcellulose) (HPC) 96 % of control | dose: 200.0 mg/kg/injection, schedule: Q04DX002 (ip), vehicle: Klucel (hydroxypropylcellulose) (HPC) 96 % of control | dose: 400.0 mg/kg/injection, schedule: Q04DX002 (ip), vehicle: Klucel (hydroxypropylcellulose) (HPC) 100 % of control

OC(CI)C(O)C(O)C(O)CI (stereo unspecified)
inactive: dose: 50.0 mg/kg/injection, schedule: Q01DX009 (ip), vehicle: other 101 % of control | dose: 100.0 mg/kg/injection, schedule: Q01DX009 (ip), vehicle: other 101 % of control and 106 % of control | dose: 100.0 mg/kg/injection, schedule: Q## X024 (ip), vehicle: other 103 % of control | dose: 177.0 mg/kg/injection, schedule: Q01DX Z (ip), vehicle: methylcellulose (MC) 92 % of control | dose: 200.0 mg/kg/injection, schedule: Q01DX001 (ip), vehicle: other 103 % of control and 101 % of control | dose: 200.0 mg/kg/injection, schedule: Q01DX009 (ip), vehicle: other 95 % of control and 111 % of control | dose: 200.0 mg/kg/injection, schedule: Q## X003 (ip), vehicle: other 109 % of control | dose: 200.0 mg/kg/injection, schedule: Q## X024 (ip), vehicle: other 111 % of control | dose: 267.0 mg/kg/injection, schedule: Q01DX Z (ip), vehicle: methylcellulose (MC) 108 % of control | dose: 400.0 mg/kg/injection, schedule: Q01DX001 (ip), vehicle: other 97 % of control and 111 % of control | dose: 400.0 mg/kg/injection, schedule: Q01DX009 (ip), vehicle: other 101 % of control | dose: 400.0 mg/kg/injection, schedule: Q01DX Z (ip), vehicle: methylcellulose (MC) 93 % of control | dose: 400.0 mg/kg/injection, schedule: Q## X003 (ip), vehicle: other 109 % of control | dose: 400.0 mg/kg/injection, schedule: Q## X024 (ip), vehicle: other 108 % of control | dose: 600.0 mg/kg/injection, schedule: Q01DX Z (ip), vehicle: methylcellulose (MC) 98 % of control | dose: 800.0 mg/kg/injection, schedule: Q01DX001 (ip), vehicle: other 105 % of control and 101 % of control | dose: 800.0 mg/kg/injection, schedule: Q## X003 (ip), vehicle: other 109 % of control | dose: 800.0 mg/kg/injection, schedule: Q## X024 (ip), vehicle: other 124 % of control

NC(=O)/C(=C\c1ccncc1)c1cccc2ccccc12
inactive: [13] 97 % of control | [11] 108 % of control | [14] 97 % of control | [12] 88 % of control

COc1ccc2nc(N=Nc3c(N)nc(N)nc3N)sc2c1
inactive: [4] 96 % of control | [5] 105 % of control

Nc1nc(=O)n(CCCOc2ccccc2)cc1-c1ccc(Cl)c(Cl)c1
inactive: dose: 100.0 mg/kg/injection, schedule: Q01DX001 (ip), vehicle: gum acacia 99 % of control | dose: 200.0 mg/kg/injection, schedule: Q01DX001 (ip), vehicle: gum acacia 94 % of control

NC(=O)NN=C1CSSC1
inactive: dose: 1.56 mg/kg/injection, schedule: Q01DX009 (ip), vehicle: saline with Tween-80 101 % of control | dose: 3.12 mg/kg/injection, schedule: Q01DX009 (ip), vehicle: saline with Tween-80 99 % of control | dose: 6.25 mg/kg/injection, schedule: Q01DX009 (ip), vehicle: saline with Tween-80 94 % of control | dose: 6.25 mg/kg/injection, schedule: Q04DX003 (ip), vehicle: saline with Tween-80 97 % of control | dose: 12.5 mg/kg/injection, schedule: Q01DX009 (ip), vehicle: saline with Tween-80 98 % of control and 106 % of control | dose: 12.5 mg/kg/injection, schedule: Q04DX003 (ip), vehicle: saline with Tween-80 97 % of control

CC(=O)Oc1cc(O)c2c(c1)OC(C)(C)CC2=O
inactive: [13] 98 % of control | dose: 100.0 mg/kg/injection, schedule: Q04DX003 (ip), vehicle: Klucel (hydroxypropylcellulose) (HPC) 93 % of control | [14] 98 % of control | dose: 200.0 mg/kg/injection, schedule: Q04DX003 (ip), vehicle: Klucel (hydroxypropylcellulose) (HPC) 100 % of control | dose: 400.0 mg/kg/injection, schedule: Q01DX009 (ip), vehicle: Klucel (hydroxypropylcellulose) (HPC) 96 % of control | dose: 400.0 mg/kg/injection, schedule: Q04DX003 (ip), vehicle: Klucel (hydroxypropylcellulose) (HPC) 97 % of control

CCCCC(C(=O)O)c1ccccc1 (stereo unspecified)
inactive: [1] 100 % of control | [2] 97 % of control | [3] 100 % of control

Nc1ncc(C=O)c(N)n1
inactive: [6] 113 % of control | [7] 100 % of control
